*1 amine or outer side, *2 acyl side, *3 side chain or, on linkers, in order; H or OH if unused. Where a SMILES comes first, the peptide text is derived from it. Bridges are numbered along the chain shown (N, C = ends). [ ]: non-standard residue; d: D form. The star is where a group is joined. hPhe(3,5-F2-4-CF3) = N[C@@H](CCc1cc(F)c(C(F)(F)F)c(F)c1)C(=O)O; X36 = CC(C)CCN([C@@H](Cc1ccc(C(F)(F)F)cc1)C(=O)[*:2])[*:1]; hPhe(3-Cl-4-CF3) = N[C@@H](CCc1ccc(C(F)(F)F)c(Cl)c1)C(=O)O; NPrPhe(4-CF3) = CCCN[C@@H](Cc1ccc(C(F)(F)F)cc1)C(=O)O; X16 = O=C([C@@H](N[*:1])C1CC(F)(F)C1)[*:2]; NMeGly(cPent) = CN[C@H](C(=O)O)C1CCCC1; Pro(4,4-Me2) = CC1(C)CN[C@H](C(=O)O)C1; NMeD = CN[C@@H](CC(=O)O)C(=O)O; NMeL = CN[C@@H](CC(C)C)C(=O)O; Morpholide = C1CN(*)CCO1; Ac5c = NC1(C(=O)O)CCCC1; Aze = O=C(O)[C@@H]1CCN1; Sar = CNCC(=O)O
Columns and labels:
[1] = biological target: GDP-bound NRAS wild-type protein (Homo sapiens, UniProt P01111); experiment: Binding to NRAS by surface plasmon resonance (SPR), Single Cycle Kinetics; conditions: for NRAS/KRAS (ratio of KD value with respect to NRAS to KD value with respect to KRAS): GDP-bound NRAS wild-type vs GDP-bound KRAS wild-type
Sequence of GDP-bound NRAS wild-type protein (P01111 whole entry): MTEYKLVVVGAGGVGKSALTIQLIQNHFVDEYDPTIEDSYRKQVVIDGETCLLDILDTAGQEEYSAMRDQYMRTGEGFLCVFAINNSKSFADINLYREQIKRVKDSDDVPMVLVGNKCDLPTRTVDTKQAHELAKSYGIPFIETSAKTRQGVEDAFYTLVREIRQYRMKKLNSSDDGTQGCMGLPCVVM

[2] = biological target: GDP-bound HRAS wild-type protein (Homo sapiens, UniProt P01112); experiment: Binding to HRAS by surface plasmon resonance (SPR), Single Cycle Kinetics; conditions: for HRAS/KRAS (ratio of KD value with respect to HRAS to KD value with respect to KRAS): GDP-bound HRAS wild-type vs GDP-bound KRAS wild-type
Sequence of GDP-bound HRAS wild-type protein (P01112 whole entry): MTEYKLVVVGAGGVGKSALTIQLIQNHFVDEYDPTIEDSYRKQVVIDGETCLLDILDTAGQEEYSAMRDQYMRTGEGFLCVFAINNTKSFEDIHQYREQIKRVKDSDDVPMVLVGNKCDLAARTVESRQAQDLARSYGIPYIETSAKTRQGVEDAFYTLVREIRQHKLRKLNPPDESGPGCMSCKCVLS

CCC[C@H]1C(=O)N[C@@H]([C@@H](C)CC)C(=O)N(C)CC(=O)N(C)[C@H]2C/C=C\CCN(C2=O)[C@@H](Cc2ccc(C(F)(F)F)cc2)C(=O)N(C)CC(=O)N[C@@H](CCc2ccc3sc(F)c(C)c3c2)C(=O)N2C[C@H](OCC)C[C@H]2C(=O)NC2(CC(C)(C)C2)C(=O)N(C)[C@@H](C2CCCC2)C(=O)N(C)[C@H](C(=O)N(C)C)CC(=O)N1C [PP2948]
NRAS/KRAS (ratio of KD value with respect to GDP-bound NRAS wild-type protein to KD value with respect to KRAS) ([1]; KD ratio NRAS/KRAS, class symbols): A (a compound having 10 or more and less than 20 is denoted as A) | HRAS/KRAS (ratio of KD value with respect to GDP-bound HRAS wild-type protein to KD value with respect to KRAS) ([2]; KD ratio HRAS/KRAS, class symbols): A (a compound having 10 or more and less than 20 is denoted as A)

CCCN(C)C(=O)[C@@H]1CC(=O)N(C)[C@@H](C2CCC2)C(=O)N[C@@H]([C@@H](C)CC)C(=O)N(C)CC(=O)N(C)[C@H]2C/C=C\CCN(C2=O)[C@@H](Cc2ccc(C(F)(F)F)cc2)C(=O)N(C)CC(=O)N[C@@H](CCc2ccc(C(F)(F)F)c(OC)c2)C(=O)N2C[C@@H](C)C[C@H]2C(=O)NC2(CCC2)C(=O)N(C)[C@@H](C2CCCC2)C(=O)N1C [PP2072]
NRAS/KRAS (ratio of KD value with respect to NRAS to KD value with respect to KRAS) ([1]; SPR): A (a compound having 10 or more and less than 20 is denoted as A) | HRAS/KRAS (ratio of KD value with respect to HRAS to KD value with respect to KRAS) ([2]; SPR): A (a compound having 10 or more and less than 20 is denoted as A)

CCC[C@H]1C(=O)N[C@@H]([C@@H](C)CC)C(=O)N(C)CC(=O)N(C)[C@H]2C/C=C\CCN(C2=O)[C@@H](Cc2ccc(C)cc2)C(=O)N(C)CC(=O)N[C@@H](CCc2ccc(C(F)(F)F)c(Cl)c2)C(=O)N2C[C@H](CC)C[C@H]2C(=O)NC2(CCC2)C(=O)N(C)[C@@H](C2CCCC2)C(=O)N(C)[C@H](C(=O)N(C)C)CC(=O)N1C [PP2237]
NRAS/KRAS (ratio of KD value with respect to NRAS to KD value with respect to KRAS) ([1]; SPR): A (a compound having 10 or more and less than 20 is denoted as A) | HRAS/KRAS (ratio of KD value with respect to HRAS to KD value with respect to KRAS) ([2]; SPR): A (a compound having 10 or more and less than 20 is denoted as A)

CCO[C@@H]1C[C@H]2C(=O)NC3(CCC3)C(=O)N(C)[C@@H](C3CCCC3)C(=O)N(C)[C@H](C(=O)N(C)C)CC(=O)N(C)[C@@H](Cc3ccccc3F)C(=O)N[C@@H]([C@@H](C)CC)C(=O)N(C)CC(=O)N(C)[C@H]3CCCCCN(C3=O)[C@@H](Cc3ccc(C(F)(F)F)cc3)C(=O)N(C)CC(=O)N[C@@H](CCc3cc(F)c(C(F)(F)F)c(F)c3)C(=O)N2C1 [PP0934]
NRAS/KRAS (ratio of KD value with respect to NRAS to KD value with respect to KRAS) ([1]; KD ratio, SPR): B (a compound having 3 or more and less than 10 is denoted as B) | HRAS/KRAS (ratio of KD value with respect to HRAS to KD value with respect to KRAS) ([2]; KD ratio, SPR): B (a compound having 3 or more and less than 10 is denoted as B)

CC[C@H](C)[C@@H]1NC(=O)[C@H](CC(C)C)N(C)C(=O)C[C@@H](C(=O)N2CCOCC2)N(C)C(=O)[C@H](C2CCCC2)N(C)C(=O)C2(CCCC2)NC(=O)[C@@H]2CCCN2C(=O)[C@H](CCc2ccc(C(F)(F)F)c(Cl)c2)NC(=O)CN(C)C(=O)[C@H](Cc2ccc(C(F)(F)F)cc2)N(CCC(C)C)C(=O)CN(C)C(=O)CN(C)C1=O [PP0126] ([NMeL]I[Sar][Sar][X36][Sar][hPhe(3-Cl-4-CF3)]P[Ac5c][NMeGly(cPent)][NMeD]-Morpholide; lactam N-11)
NRAS/KRAS (ratio of KD for GDP-bound NRAS wild-type to KD for KRAS) ([1]; KD ratio NRAS/KRAS, SPR): C (A compound having a KD ratio of 0.1 or more and less than 3 is denoted as C) | HRAS/KRAS (ratio of KD for GDP-bound HRAS wild-type to KD for KRAS) ([2]; KD ratio HRAS/KRAS, SPR): C (A compound having a KD ratio of 0.1 or more and less than 3 is denoted as C)

CCCN1C(=O)CN(C)C(=O)CNC(=O)[C@H]([C@@H](C)CC)NC(=O)[C@H](CC(C)C)N(C)C(=O)C[C@@H](C(=O)N2CCOCC2)N(C)C(=O)[C@H](C2CCCC2)N(C)C(=O)C2(CCCC2)NC(=O)[C@@H]2CC(C)(C)CN2C(=O)[C@H](CCc2ccc(C(F)(F)F)c(Cl)c2)NC(=O)CN(C)C(=O)[C@@H]1Cc1ccc(C(F)(F)F)cc1 [PP0448] ([NMeL]IG[Sar][NPrPhe(4-CF3)][Sar][hPhe(3-Cl-4-CF3)][Pro(4,4-Me2)][Ac5c][NMeGly(cPent)][NMeD]-Morpholide; lactam N-11)
NRAS/KRAS (ratio of KD value with respect to GDP-bound NRAS wild-type protein to KD value with respect to KRAS) ([1]; KD ratio NRAS/KRAS, SPR): B (a compound having 3 or more and less than 10 is denoted as B) | HRAS/KRAS (ratio of KD value with respect to GDP-bound HRAS wild-type protein to KD value with respect to KRAS) ([2]; KD ratio HRAS/KRAS, SPR): C (A compound having a KD ratio of 0.1 or more and less than 3 is denoted as C)

CCCN1C(=O)[C@@H]2CCN2C(=O)CN(C)C(=O)[C@H](C2CC(F)(F)C2)NC(=O)[C@H](CC(C)C)N(C)C(=O)C[C@@H](C(=O)N2CCOCC2)N(C)C(=O)[C@H](C2CCCC2)N(C)C(=O)C2(CCCC2)NC(=O)[C@@H]2CCCN2C(=O)[C@H](CCc2cc(F)c(C(F)(F)F)c(F)c2)NC(=O)CN(C)C(=O)[C@@H]1Cc1ccc(C(F)(F)F)cc1 [PP0787] ([NMeL][X16][Sar][Aze][NPrPhe(4-CF3)][Sar][hPhe(3,5-F2-4-CF3)]P[Ac5c][NMeGly(cPent)][NMeD]-Morpholide; lactam N-11)
NRAS/KRAS (ratio of KD value with respect to GDP-bound NRAS wild-type protein to KD value with respect to KRAS) ([1]; KD ratio NRAS/KRAS, SPR): C (A compound having a KD ratio of 0.1 or more and less than 3 is denoted as C) | HRAS/KRAS (ratio of KD value with respect to GDP-bound HRAS wild-type protein to KD value with respect to KRAS) ([2]; KD ratio HRAS/KRAS, SPR): B (a compound having 3 or more and less than 10 is denoted as B)

Reference: patent publication US20250230193A1, “CYCLIC COMPOUND HAVING SELECTIVE KRAS INHIBITORY EFFECT ON HRAS AND NRAS” (CHUGAI SEIYAKU KABUSHIKI KAISHA, priority 2022, published 2025)
